Calls of active or inactive are those of the source. The calls are words filed in the database; no cut-off is given here.
Legend:
[1] = system: BGC-823; experiment: Induction of ROS generation in human BGC-823 cells assessed as cells with green fluorescence at 0.25 uM incubated for 24 hrs by DCFH-DA staining based analysis relative to control; format: functional
[2] = system: BGC-823; experiment: Induction of ROS generation in human BGC-823 cells assessed as cells with green fluorescence at 0.5 uM incubated for 24 hrs by DCFH-DA staining based analysis relative to control; format: functional
[3] = system: BGC-823; experiment: Induction of ROS generation in human BGC-823 cells assessed as cells with green fluorescence at 1 uM incubated for 24 hrs by DCFH-DA staining based analysis relative to control; format: functional
[4] = system: BGC-823; experiment: Induction of ROS generation in human BGC-823 cells assessed as cells with green fluorescence at 0.25 uM incubated for 24 hrs in presence of NAC by DCFH-DA staining based analysis relative to control; format: functional
[5] = system: Cell membrane; experiment: Induction of mitochondrial membrane potential loss in human BGC-823 cells assessed as increase in number of cells with J-monomers by measuring green fluorescence at 0.25 uM incubated for 24 hrs by JC-1 staining based flow cytometric analysis (reference value: 0.33%); format: cell membranes
[6] = system: Cell membrane; experiment: Induction of mitochondrial membrane potential loss in human BGC-823 cells assessed as decrease in number of cells with J-aggregates by measuring red fluorescence at 0.25 uM incubated for 24 hrs by JC-1 staining based flow cytometric analysis (reference value: 99.7 %); format: cell membranes; design: scale not given: the % may be the effect or the level left
[7] = system: Cell membrane; experiment: Induction of mitochondrial membrane potential loss in human BGC-823 cells assessed as increase in number of cells with J-monomers by measuring green fluorescence at 0.5 uM incubated for 24 hrs by JC-1 staining based flow cytometric analysis (reference value: 0.33%); format: cell membranes
[8] = system: Cell membrane; experiment: Induction of mitochondrial membrane potential loss in human BGC-823 cells assessed as decrease in number of cells with J-aggregates by measuring red fluorescence at 0.5 uM incubated for 24 hrs by JC-1 staining based flow cytometric analysis (reference value: 99.7 %); format: cell membranes; design: scale not given: the % may be the effect or the level left
[9] = system: Cell membrane; experiment: Induction of mitochondrial membrane potential loss in human BGC-823 cells assessed as increase in number of cells with J-monomers by measuring green fluorescence at 1 uM incubated for 24 hrs by JC-1 staining based flow cytometric analysis (reference value: 0.33%); format: cell membranes
[10] = system: Cell membrane; experiment: Induction of mitochondrial membrane potential loss in human BGC-823 cells assessed as decrease in number of cells with J-aggregates by measuring red fluorescence at 1 uM incubated for 24 hrs by JC-1 staining based flow cytometric analysis (reference value: 99.7 %); format: cell membranes; design: scale not given: the % may be the effect or the level left
[11] = system: Cell membrane; experiment: Induction of mitochondrial membrane potential loss in human BGC-823 cells assessed as increase in number of cells with J-monomers by measuring green fluorescence at 1 uM incubated for 24 hrs in presence of NAC by JC-1 staining based flow cytometric analysis (reference value: 0.33%); format: cell membranes
[12] = system: Cell membrane; experiment: Induction of mitochondrial membrane potential loss in human BGC-823 cells assessed as decrease in number of cells with J-aggregates by measuring red fluorescence at 1 uM incubated for 24 hrs in presence of NAC by JC-1 staining based flow cytometric analysis (reference value: 99.7 %); format: cell membranes; design: scale not given: the % may be the effect or the level left
[13] = system: BGC-823; experiment: Induction of apoptosis in human BGC-823 cells assessed as viable cells at 0.25 uM incubated for 48 hrs by Annexin V-FITC/PI staining based flow cytometric analysis ( Rvb = 90.09 %); format: functional; details: read-out: Activity
[14] = system: BGC-823; experiment: Induction of apoptosis in human BGC-823 cells assessed as early apoptotic cells at 0.25 uM incubated for 48 hrs by Annexin V-FITC/PI staining based flow cytometric analysis ( Rvb = 1.68 %); format: functional
[15] = system: BGC-823; experiment: Induction of apoptosis in human BGC-823 cells assessed as late apoptotic cells at 0.25 uM incubated for 48 hrs by Annexin V-FITC/PI staining based flow cytometric analysis ( Rvb = 5.61 %); format: functional
[16] = system: BGC-823; experiment: Induction of apoptosis in human BGC-823 cells assessed as necrotic cells at 0.25 uM incubated for 48 hrs by Annexin V-FITC/PI staining based flow cytometric analysis ( Rvb = 1.79 %); format: functional
[17] = system: BGC-823; experiment: Induction of apoptosis in human BGC-823 cells assessed as viable cells at 0.5 uM incubated for 48 hrs by Annexin V-FITC/PI staining based flow cytometric analysis ( Rvb = 90.09 %); format: functional; details: read-out: Activity
[18] = system: BGC-823; experiment: Induction of apoptosis in human BGC-823 cells assessed as early apoptotic cells at 0.5 uM incubated for 48 hrs by Annexin V-FITC/PI staining based flow cytometric analysis ( Rvb = 1.68 %); format: functional
[19] = system: BGC-823; experiment: Induction of apoptosis in human BGC-823 cells assessed as late apoptotic cells at 0.5 uM incubated for 48 hrs by Annexin V-FITC/PI staining based flow cytometric analysis ( Rvb = 5.61 %); format: functional
[20] = system: BGC-823; experiment: Induction of apoptosis in human BGC-823 cells assessed as necrotic cells at 0.5 uM incubated for 48 hrs by Annexin V-FITC/PI staining based flow cytometric analysis ( Rvb = 1.79 %); format: functional
[21] = system: BGC-823; experiment: Induction of apoptosis in human BGC-823 cells assessed as viable cells at 1 uM incubated for 48 hrs by Annexin V-FITC/PI staining based flow cytometric analysis ( Rvb = 90.09 %); format: functional; details: read-out: Activity
[22] = system: BGC-823; experiment: Induction of apoptosis in human BGC-823 cells assessed as early apoptotic cells at 1 uM incubated for 48 hrs by Annexin V-FITC/PI staining based flow cytometric analysis ( Rvb = 1.68 %); format: functional
[23] = system: BGC-823; experiment: Induction of apoptosis in human BGC-823 cells assessed as late apoptotic cells at 1 uM incubated for 48 hrs by Annexin V-FITC/PI staining based flow cytometric analysis ( Rvb = 5.61 %); format: functional
[24] = system: BGC-823; experiment: Induction of apoptosis in human BGC-823 cells assessed as necrotic cells at 1 uM incubated for 48 hrs by Annexin V-FITC/PI staining based flow cytometric analysis ( Rvb = 1.79 %); format: functional
[25] = system: BGC-823; experiment: Cell cycle arrest in human BGC-823 cells assessed as accumulation of cells at G2/M phase incubated for 24 hrs by PI staining based flow cytometric analysis; format: functional
[26] = Half-life in rat at 10 mg/kg, ip measured after 24 hrs by LC-MS/MS analysis; format: ADME, organism-based; details: in vivo
[27] = Cmax in rat at 10 mg/kg, ip measured after 24 hrs by LC-MS/MS analysis; format: ADME, organism-based; details: in vivo
[28] = AUC (0 to t) in rat at 10 mg/kg, ip measured after 24 hrs by LC-MS/MS analysis; format: ADME, organism-based; details: in vivo
[29] = AUC (0 to infinity) in rat at 10 mg/kg, ip measured after 24 hrs by LC-MS/MS analysis; format: ADME, organism-based; details: in vivo
[30] = Clearance in rat at 10 mg/kg, ip measured after 24 hrs by LC-MS/MS analysis; format: ADME, organism-based; details: in vivo
[31] = Apparent volume of distribution in rat at 10 mg/kg, ip measured after 24 hrs by LC-MS/MS analysis; format: ADME, organism-based; details: in vivo
[32] = Half-life in rat at 10 mg/kg, iv measured after 24 hrs by LC-MS/MS analysis; format: ADME, organism-based; details: in vivo
[33] = Cmax in rat at 10 mg/kg, iv measured after 24 hrs by LC-MS/MS analysis; format: ADME, organism-based; details: in vivo
[34] = AUC (0 to t) in rat at 10 mg/kg, iv measured after 24 hrs by LC-MS/MS analysis; format: ADME, organism-based; details: in vivo
[35] = AUC (0 to infinity) in rat at 10 mg/kg, iv measured after 24 hrs by LC-MS/MS analysis; format: ADME, organism-based; details: in vivo
[36] = Clearance in rat at 10 mg/kg, iv measured after 24 hrs by LC-MS/MS analysis; format: ADME, organism-based; details: in vivo
[37] = Apparent volume of distribution in rat at 10 mg/kg, iv measured after 24 hrs by LC-MS/MS analysis; format: ADME, organism-based; details: in vivo, read-out: Vz
[38] = Binding affinity to DTT in PBS assessed as UV peak appearance at 288 nm at 360 uM by UV-Vis spectra analysis
[39] = GSH reactivity in human BGC-823 cells assessed as GSSG/GSH ratio at 0.4 uM incubated for 24 hrs by microplate reader analysis (reference value: 0.34); format: ADME, cell-based; details: bgc-823, 24 h

## CC1(C)CC[C@]2(C(=O)OCCCCOC(=O)c3ccc(O)cc3)CC[C@]3(C)[C@H](C(=O)C=C4[C@@]5(C)C=C(C#N)C(=O)C(C)(C)[C@@H]5CC[C@]43C)[C@@H]2C1
[1]
  Activity: 23.2%
[2]
  Activity: 61.6%
[3]
  Activity: 95.3%
[4]
  Activity: 67.2%
[5]
  Activity: 2.06%
[6]
  Activity: 97.8%
[7]
  Activity: 15.4%
[8]
  Activity: 84.2%
[9]
  Activity: 77.4%
[10]
  Activity: 24.5%
[11]
  Activity: 3.14%
[12]
  Activity: 96.7%
[13]
  viability at 0.25 µM: 90.6%
[14]
  Activity: 3.01%
[15]
  Activity: 5.9%
[16]
  Activity: 0.49%
[17]
  viability at 0.5 µM: 74.7%
[18]
  Activity: 3.44%
[19]
  Activity: 16.1%
[20]
  Activity: 5.79%
[21]
  viability at 1 µM: 50.1%
[22]
  Activity: 14%
[23]
  Activity: 30.4%
[24]
  Activity: 5.52%
[25]
  Activity: Dose-Dependent Effect
[26]
  half-life: 16.5 h
[27]
  Cmax: 881 ng/mL
[28]
  AUCt: 7310 ng·h/mL
[29]
  AUC: 1163 ng·h/mL
[30]
  CL: 14.4 mL/min/kg
[31]
  Vz: 20.63 L/kg
[32]
  half-life: 5.4 h
[33]
  Cmax: 19000 ng/mL
[34]
  AUC(0-t) at 24 h: 20000 ng·h/mL
[35]
  AUC(0-inf): 20200 ng·h/mL
[36]
  clearance: 8.4 mL/min/kg
[37]
  Vd: 3.99 L/kg
[38]
  Activity: Active
[39]
  Ratio: 1.08

Reference: ChEMBL document CHEMBL5576127, “New CDDO Arylboronate Ester Derivatives with High Selectivity and Low Toxicity” (J Med Chem, 2024)
